This passage reports EC50 and IC50 results from patent US7491794B2, “Macrocyclic compounds as inhibitors of viral replication” (Intermune, Inc., priority 2003, dated 2009).

Assay [1] deals with HCV sub-genomic replicon, GS4.3. The assay can be described thus: Quantitation by ELISA of NPTII in the HCV sub-genomic replicon, GS4.3, Section B. The format is cell-based. The conditions noted are these: Hepatitis C virus, read-out: Replicon EC50. The method, boiled down:
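NPTII marker protein in lysates was quantified by ELISA read at 450 nm after 72 h inhibitor exposure (3-fold series, final DMSO 1%, G418-free medium) of HuH-7 cells stably harbouring the subgenomic HCV replicon. Values relative to DMSO-treated controls; 4-parameter curves gave EC50.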

A further assay deals with T1, NS3-NS4A protease (Hepatitis C virus genotype 1a, UniProt P27958).
T1 construct: Recombinant E. coli or Baculovirus full-length NS3 was diluted to 3.33 μM with assay buffer; made in house; host or cells: E. coli or baculovirus (BV) system
Briefly: NS3-NS4A protease assay (NS3 inhibition assay, RETS1 substrate), Section B. The format is biochemical. The note with it: read-out: NS3-NS4A IC50. The method, boiled down:
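Kinetic fluorescence read (335 nm excitation, 495 nm emission, 30 min) of RETS1 cleavage by NS3/NS4A-2 complex, 2 nM E. coli or 3 nM baculovirus NS3, after 10 min room-temperature compound pre-incubation. Four-parameter-fit IC50s converted to Ki by Cheng–Prusoff, Ki=IC50/(1+[S]/Km).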

Where two headings read alike, the source gives them in different places.

T1 sequence (P27958 1027-1657): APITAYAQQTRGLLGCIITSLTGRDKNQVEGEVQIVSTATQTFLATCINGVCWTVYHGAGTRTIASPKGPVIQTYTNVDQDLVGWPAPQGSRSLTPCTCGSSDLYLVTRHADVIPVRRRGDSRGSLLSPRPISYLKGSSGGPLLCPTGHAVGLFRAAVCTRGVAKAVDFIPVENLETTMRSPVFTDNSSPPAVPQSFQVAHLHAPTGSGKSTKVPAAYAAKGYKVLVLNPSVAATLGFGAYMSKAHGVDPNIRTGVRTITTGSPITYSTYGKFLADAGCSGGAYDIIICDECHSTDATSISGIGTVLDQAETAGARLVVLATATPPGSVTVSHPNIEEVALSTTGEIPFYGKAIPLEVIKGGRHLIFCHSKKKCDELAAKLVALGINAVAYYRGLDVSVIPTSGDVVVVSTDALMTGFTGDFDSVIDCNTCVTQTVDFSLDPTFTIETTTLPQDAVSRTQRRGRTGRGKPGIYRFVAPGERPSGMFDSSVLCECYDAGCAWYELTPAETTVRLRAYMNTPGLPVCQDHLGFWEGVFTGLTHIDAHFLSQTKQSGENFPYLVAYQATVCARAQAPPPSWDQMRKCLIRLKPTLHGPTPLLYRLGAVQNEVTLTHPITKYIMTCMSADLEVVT

Take `CC(C)(C)OC(=O)N[C@H]1CCCCCC=C[C@@H]2C[C@@]2(C(=O)O)NC(=O)[C@@H]2C[C@@H](OC(=O)N3Cc4ccccc4C(C)(C)C3)CN2C1=O` [AR00304066, (1S,4R,6S,14S,18R)-14-tert-Butoxycarbonylamino-18-(4,4-dimethyl-3,4-dihydro-1H-isoquinoline-2-carbonyloxy)-2,15-dioxo-3,16-diaza-tricyclo[14.3.0.0^4,6]nonadec-7-ene-4-carboxylic acid]: the EC50 in assay [1] (GS4.3 cells, 72 h incubation) was under 10000 nM. On NS3-NS4A protease, the IC50 was under 1000 nM.
For `COc1ccc(S(=O)(=O)NC(=O)[C@@]23C[C@H]2/C=C\CCCCC[C@H](NC(=O)OC(C)(C)C)C(=O)N2C[C@H](OC(=O)N4Cc5ccccc5C4)C[C@H]2C(=O)N3)cc1` [AR00334341, (1S,4R,6S,14S,18R)-1,3-Dihydro-isoindole-2-carboxylic acid 14-tert-butoxycarbonylamino-4-(4-methoxy-benzenesulfonylaminocarbonyl)-2,15-dioxo-3,16-diaza-tricyclo[14.3.0.0^4,6]nonadec-7-en-18-yl ester] the same measures were under 100 nM and under 100 nM.
Take `O=C(N[C@H]1CCCCC/C=C\[C@@H]2C[C@@]2(C(=O)NS(=O)(=O)C2CC2)NC(=O)[C@@H]2C[C@@H](OC(=O)N3CCc4ccccc4C3)CN2C1=O)O[C@@H]1CCOC1` [AR00304163, (1S,4R,6S,14S,18R)-3,4-Dihydro-1H-isoquinoline-2-carboxylic acid 4-cyclopropanesulfonylaminocarbonyl-2,15-dioxo-14-(tetrahydro-furan-3R-yloxycarbonylamino)-3,16-diaza-tricyclo[14.3.0.0^4,6]nonadec-7-en-18-yl ester]: the EC50 in assay [1] (GS4.3 cells, 72 h incubation) was under 100 nM. The IC50 on NS3-NS4A protease was under 100 nM.
For the compound `CC(C)S(=O)(=O)NC(=O)[C@@]12C[C@H]1/C=C\CCCCC[C@H](NC(=O)OC(C)(C)C)C(=O)N1C[C@H](OC(=O)N3CCc4ccccc4C3)C[C@H]1C(=O)N2` [AR00261407, (1S,4R,6S,14S,18R)-3,4-Dihydro-1H-isoquinoline-2-carboxylic acid 14-tert-butoxycarbonylamino-2,15-dioxo-4-(propane-2-sulfonylaminocarbonyl)-3,16-diaza-tricyclo[14.3.0.0^4,6]nonadec-7-en-18-yl ester], the EC50 in assay [1] (72 h) was under 1000 nM. The IC50 on NS3-NS4A protease was under 100 nM.
On to `CC(C)Nc1nc(-c2ccc3c(c2)CN(C(=O)O[C@@H]2C[C@H]4C(=O)N[C@]5(C(=O)NS(=O)(=O)C6CC6)C[C@H]5/C=C\CCCCC[C@H](NC(=O)OC(C)(C)C)C(=O)N4C2)C3)cs1` [AR00365019, (1S,4R,6S,14S,18R)-5-(2-Isopropylamino-thiazol-4-yl)-1,3-dihydro-isoindole-2-carboxylic acid 14-tert-butoxycarbonylamino-4-cyclopropanesulfonylaminocarbonyl-2,15-dioxo-3,16-diaza-tricyclo[14.3.0.0^4,6]nonadec-7-en-18-yl ester], for which the EC50 in assay [1] (GS4.3 cells, 72 h incubation) was under 100 nM. On NS3-NS4A protease, the IC50 was under 100 nM.
Regarding `O=C(N[C@H]1CCCCC/C=C\[C@@H]2C[C@@]2(C(=O)NS(=O)(=O)C2CC2)NC(=O)[C@@H]2C[C@@H](OC(=O)N3Cc4ccccc4C3)CN2C1=O)OC1CCOCC1` [AR00320081, (1S,4R,6S,14S,18R)-1,3-Dihydro-isoindole-2-carboxylic acid 4-cyclopropanesulfonylaminocarbonyl-2,15-dioxo-14-(tetrahydro-pyran-4-yloxycarbonylamino)-3,16-diaza-tricyclo[14.3.0.0^4,6]nonadec-7-en-18-yl ester], the EC50 in assay [1] (GS4.3 cells, 72 h incubation) was under 100 nM. Besides, the IC50 on NS3-NS4A protease is under 100 nM.
`O=C(N[C@H]1CCCCC/C=C\[C@@H]2C[C@@]2(C(=O)O)NC(=O)[C@@H]2C[C@@H](OC(=O)N3CCc4ccccc4C3)CN2C1=O)O[C@@H]1CCOC1` [AR00304127, (1S,4R,6S,14S,18R)-18-(3,4-Dihydro-1H-isoquinoline-2-carbonyloxy)-2,15-dioxo-14-(tetrahydro-furan-3R-yloxycarbonylamino)-3,16-diaza-tricyclo[14.3.0.0^4,6]nonadec-7-ene-4-carboxylic acid]: in assay [1] (GS4.3 cells, 72 h incubation), the EC50 is under 10000 nM. Further, the IC50 at NS3-NS4A protease was under 1000 nM.
As for `COCC1c2ccc(OC)cc2CCN1C(=O)O[C@@H]1C[C@H]2C(=O)N[C@]3(C(=O)O)C[C@H]3/C=C\CCCCC[C@H](NC(=O)OC(C)(C)C)C(=O)N2C1` (stereo partly drawn) [AR00333842, (1S,4R,6S,14S,18R)-14-tert-Butoxycarbonylamino-18-(6-methoxy-1-methoxymethyl-3,4-dihydro-1H-isoquinoline-2-carbonyloxy)-2,15-dioxo-3,16-diaza-tricyclo[14.3.0.0^4,6]nonadec-7-ene-4-carboxylic acid], in assay [1] (GS4.3 cells, 72 h incubation), the EC50 was under 10000 nM. Besides, the IC50 on NS3-NS4A protease was under 1000 nM.
For `CC(C)(C)OC(=O)N[C@H]1CCCCC/C=C\[C@@H]2C[C@@]2(C(=O)NS(=O)(=O)C2CC2)NC(=O)[C@@H]2C[C@@H](OC(=O)N3Cc4ccc(Cl)cc4C3)CN2C1=O` [AR00320119, (1S,4R,6S,14S,18R)-5-Chloro-1,3-dihydro-isoindole-2-carboxylic acid 14-tert-butoxycarbonylamino-4-cyclopropanesulfonylaminocarbonyl-2,15-dioxo-3,16-diaza-tricyclo[14.3.0.0^4,6]nonadec-7-en-18-yl ester], in that order: under 100 nM and under 100 nM.
On to `C[C@@H]1CN(C(=O)O[C@@H]2C[C@H]3C(=O)N[C@]4(C(=O)O)C[C@H]4/C=C\CCCCC[C@H](NC(=O)OC(C)(C)C)C(=O)N3C2)Cc2ccccc21` [AR00320123, (1S,4R,6S,14S,18R)-14-tert-Butoxycarbonylamino-18-(4S-methyl-3,4-dihydro-1H-isoquinoline-2-carbonyloxy)-2,15-dioxo-3,16-diaza-tricyclo[14.3.0.0^4,6]nonadec-7-ene-4-carboxylic acid], for which the EC50 in assay [1] (GS4.3 cells, 72 h incubation) was under 10000 nM. At NS3-NS4A protease, the IC50 was under 1000 nM.
For `O=C(N[C@H]1CCCCC/C=C\[C@@H]2C[C@@]2(C(=O)O)NC(=O)[C@@H]2C[C@@H](OC(=O)N3CCc4c(F)cccc4C3)CN2C1=O)OC1CCCC1` [AR00304074, (1S,4R,6S,14S,18R)-14-Cyclopentyloxycarbonylamino-18-(5-fluoro-3,4-dihydro-1H-isoquinoline-2-carbonyloxy)-2,15-dioxo-3,16-diaza-tricyclo[14.3.0.0^4,6]nonadec-7-ene-4-carboxylic acid] the same measures were under 10000 nM and under 1000 nM.
As for `CC(C)(C)OC(=O)N[C@H]1CCCCC/C=C\[C@@H]2C[C@@]2(C(=O)NS(=O)(=O)C2CC2)NC(=O)[C@@H]2C[C@@H](OC(=O)N3Cc4ccc(O)cc4C3)CN2C1=O` [AR00364936, (1S,4R,6S,14S,18R)-5-Hydroxy-1,3-dihydro-isoindole-2-carboxylic acid 14-tert-butoxycarbonylamino-4-cyclopropanesulfonylaminocarbonyl-2,15-dioxo-3,16-diaza-tricyclo[14.3.0.0^4,6]nonadec-7-en-18-yl ester], the EC50 in assay [1] (GS4.3 cells, 72 h incubation) is under 1000 nM. In addition, the IC50 on NS3-NS4A protease is under 100 nM.
`O=C(N[C@H]1CCCCC/C=C\[C@@H]2C[C@@]2(C(=O)NS(=O)(=O)C2CC2)NC(=O)C2C[C@@H](OC(=O)N3CCc4ccccc4C3CN3CCCCC3)CN2C1=O)OC1CCCC1` (stereo partly drawn) [AR00320506, (1S,4R,6S,14S,18R)-1-Piperidin-1-ylmethyl-3,4-dihydro-1H-isoquinoline-2-carboxylic acid 14-cyclopentyloxycarbonylamino-4-cyclopropanesulfonylaminocarbonyl-2,15-dioxo-3,16-diaza-tricyclo[14.3.0.0^4,6]nonadec-7-en-18-yl ester]: in assay [1] (GS4.3 cells, 72 h incubation), the EC50 is under 100 nM. In addition, on NS3-NS4A protease, the IC50 is under 100 nM.
As for `O=C(N[C@H]1CCCCC/C=C\[C@@H]2C[C@@]2(C(=O)NS(=O)(=O)C2CC2)NC(=O)[C@@H]2C[C@@H](OC(=O)N3CCc4ccccc4C3)CN2C1=O)O[C@H]1CCOC1` [AR00304162, (1S,4R,6S,14S,18R)-3,4-Dihydro-1H-isoquinoline-2-carboxylic acid 4-cyclopropanesulfonylaminocarbonyl-2,15-dioxo-14-(tetrahydro-furan-3-yloxycarbonylamino)-3,16-diaza-tricyclo[14.3.0.0^4,6]nonadec-7-en-18-yl ester], the EC50 in assay [1] (GS4.3 cells, 72 h incubation) was under 100 nM. Besides, at NS3-NS4A protease, the IC50 is under 100 nM.
In the case of `COCC1c2cccc(F)c2CCN1C(=O)O[C@@H]1CC2C(=O)N[C@]3(C(=O)O)C[C@H]3/C=C\CCCCC[C@H](NC(=O)OC3CCCC3)C(=O)N2C1` (stereo partly drawn) [AR00365381, (1S,4R,6S,14S,18R)-14-Cyclopentyloxycarbonylamino-18-(5-fluoro-1-methoxymethyl-3,4-dihydro-1H-isoquinoline-2-carbonyloxy)-2,15-dioxo-3,16-diaza-tricyclo[14.3.0.0^4,6]nonadec-7-ene-4-carboxylic acid], the EC50 in assay [1] (GS4.3 cells, 72 h incubation) is under 1000 nM. Also, the IC50 at NS3-NS4A protease was under 1000 nM.
In the case of `CC(C)(C)OC(=O)N[C@H]1CCCCC/C=C\[C@@H]2C[C@@]2(C(=O)NS(=O)(=O)C(F)(F)F)NC(=O)[C@@H]2C[C@@H](OC(=O)N3Cc4ccccc4C3)CN2C1=O` [AR00340479, (1S,4R,6S,14S,18R)-1,3-Dihydro-isoindole-2-carboxylic acid 14-tert-butoxycarbonylamino-2,15-dioxo-4-trifluoromethanesulfonylaminocarbonyl-3,16-diaza-tricyclo[14.3.0.0^4,6]nonadec-7-en-18-yl ester], the EC50 in assay [1] (GS4.3 cells, 72 h incubation) was under 100 nM. The IC50 on NS3-NS4A protease is under 100 nM.
